Measurements reported in PubChem BioAssay (NCI).
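96-well plates; 48 h exposure; 5 concentrations. Endpoints by linear interpolation between flanking doses. Not reached: highest tested concentration assigned. Definition used: TGI = concentration required for complete inhibition of growth.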 *1 amine or outer side, *2 acyl side, *3 side chain or, on linkers, in order; H or OH if unused. Where a SMILES comes first, the peptide text is derived from it. [ ]: non-standard residue; d: D form. The star is where a group is joined. ξ: configuration not given here. X53 = CC(C)C[C@H](N[*:1])C1=N[C@H](C(=O)[*:2])CS1; Ile(3ξ) = CCC(C)[C@H](N)C(=O)O; Allyl(1,1-Me2) = C=CC(C)(C)*

System: BT-549 breast
Test: NCI tumour cell line growth inhibition, 48 h

Row | Compound | TGI [µM]
1 | O=C1c2ccccc2C(=O)N1[C@@H](Cc1ccccc1)C(=O)n1cccc1CO | > 100
2 | C1CSC2=C(S1)SC1=C(S2)SC(=C2SC3=C(SC4=C(SCCS4)S3)S2)S1 | > 100
3 | Clc1ccc(Cc2nc3cc(Cl)c(Cl)cc3n2CC2CCCN3CCCCC23)cc1Cl (stereo not drawn) | 21.4
4 | C=CC(C)(C)OC[C@@H]1NC(=O)CNC(=O)[C@@H]2CCCN2C(=O)[C@H](C(C)CC)NC(=O)[C@@H]2CSC(=N2)[C@H](CC(C)C)NC1=O (stereo partly drawn) (cyclo(GS(Allyl(1,1-Me2))[X53][Ile(3ξ)]P)) | > 100

System: K-562 leukemia
Test: NCI tumour cell line growth inhibition, 48 h

Row | Compound | TGI [µM]
5 | O=C1c2ccccc2C(=O)N1[C@@H](Cc1ccccc1)C(=O)n1cccc1CO | > 100
6 | C1CSC2=C(S1)SC1=C(S2)SC(=C2SC3=C(SC4=C(SCCS4)S3)S2)S1 | > 100
7 | Clc1ccc(Cc2nc3cc(Cl)c(Cl)cc3n2CC2CCCN3CCCCC23)cc1Cl (stereo not drawn) | > 100
8 | C=CC(C)(C)OC[C@@H]1NC(=O)CNC(=O)[C@@H]2CCCN2C(=O)[C@H](C(C)CC)NC(=O)[C@@H]2CSC(=N2)[C@H](CC(C)C)NC1=O (stereo partly drawn) (cyclo(GS(Allyl(1,1-Me2))[X53][Ile(3ξ)]P)) | > 100

System: UACC-62 melanoma
Test: NCI tumour cell line growth inhibition, 48 h

Row | Compound | TGI [µM]
9 | O=C1c2ccccc2C(=O)N1[C@@H](Cc1ccccc1)C(=O)n1cccc1CO | > 100
10 | C1CSC2=C(S1)SC1=C(S2)SC(=C2SC3=C(SC4=C(SCCS4)S3)S2)S1 | > 100
11 | Clc1ccc(Cc2nc3cc(Cl)c(Cl)cc3n2CC2CCCN3CCCCC23)cc1Cl (stereo not drawn) | 5.42
12 | C=CC(C)(C)OC[C@@H]1NC(=O)CNC(=O)[C@@H]2CCCN2C(=O)[C@H](C(C)CC)NC(=O)[C@@H]2CSC(=N2)[C@H](CC(C)C)NC1=O (stereo partly drawn) (cyclo(GS(Allyl(1,1-Me2))[X53][Ile(3ξ)]P)) | > 100

System: U251 CNS
Test: NCI tumour cell line growth inhibition, 48 h

Row | Compound | TGI [µM]
13 | O=C1c2ccccc2C(=O)N1[C@@H](Cc1ccccc1)C(=O)n1cccc1CO | > 100
14 | C1CSC2=C(S1)SC1=C(S2)SC(=C2SC3=C(SC4=C(SCCS4)S3)S2)S1 | > 100
15 | Clc1ccc(Cc2nc3cc(Cl)c(Cl)cc3n2CC2CCCN3CCCCC23)cc1Cl (stereo not drawn) | 13.7
16 | C=CC(C)(C)OC[C@@H]1NC(=O)CNC(=O)[C@@H]2CCCN2C(=O)[C@H](C(C)CC)NC(=O)[C@@H]2CSC(=N2)[C@H](CC(C)C)NC1=O (stereo partly drawn) (cyclo(GS(Allyl(1,1-Me2))[X53][Ile(3ξ)]P)) | > 100

System: SK-OV-3 ovarian
Test: NCI tumour cell line growth inhibition, 48 h

Row | Compound | TGI [µM]
17 | O=C1c2ccccc2C(=O)N1[C@@H](Cc1ccccc1)C(=O)n1cccc1CO | > 100
18 | C1CSC2=C(S1)SC1=C(S2)SC(=C2SC3=C(SC4=C(SCCS4)S3)S2)S1 | > 100
19 | Clc1ccc(Cc2nc3cc(Cl)c(Cl)cc3n2CC2CCCN3CCCCC23)cc1Cl (stereo not drawn) | 13.4
20 | C=CC(C)(C)OC[C@@H]1NC(=O)CNC(=O)[C@@H]2CCCN2C(=O)[C@H](C(C)CC)NC(=O)[C@@H]2CSC(=N2)[C@H](CC(C)C)NC1=O (stereo partly drawn) (cyclo(GS(Allyl(1,1-Me2))[X53][Ile(3ξ)]P)) | > 100

System: CAKI-1 renal
Test: NCI tumour cell line growth inhibition, 48 h

Row | Compound | TGI [µM]
21 | O=C1c2ccccc2C(=O)N1[C@@H](Cc1ccccc1)C(=O)n1cccc1CO | > 100
22 | C1CSC2=C(S1)SC1=C(S2)SC(=C2SC3=C(SC4=C(SCCS4)S3)S2)S1 | > 100
23 | Clc1ccc(Cc2nc3cc(Cl)c(Cl)cc3n2CC2CCCN3CCCCC23)cc1Cl (stereo not drawn) | 15.9
24 | C=CC(C)(C)OC[C@@H]1NC(=O)CNC(=O)[C@@H]2CCCN2C(=O)[C@H](C(C)CC)NC(=O)[C@@H]2CSC(=N2)[C@H](CC(C)C)NC1=O (stereo partly drawn) (cyclo(GS(Allyl(1,1-Me2))[X53][Ile(3ξ)]P)) | > 100

System: MALME-3M melanoma
Test: NCI tumour cell line growth inhibition, 48 h

Row | Compound | TGI [µM]
25 | O=C1c2ccccc2C(=O)N1[C@@H](Cc1ccccc1)C(=O)n1cccc1CO | > 100
26 | C1CSC2=C(S1)SC1=C(S2)SC(=C2SC3=C(SC4=C(SCCS4)S3)S2)S1 | > 100
27 | Clc1ccc(Cc2nc3cc(Cl)c(Cl)cc3n2CC2CCCN3CCCCC23)cc1Cl (stereo not drawn) | 3.91
28 | C=CC(C)(C)OC[C@@H]1NC(=O)CNC(=O)[C@@H]2CCCN2C(=O)[C@H](C(C)CC)NC(=O)[C@@H]2CSC(=N2)[C@H](CC(C)C)NC1=O (stereo partly drawn) (cyclo(GS(Allyl(1,1-Me2))[X53][Ile(3ξ)]P)) | > 100

System: HS 578T breast
Test: NCI tumour cell line growth inhibition, 48 h

Row | Compound | TGI [µM]
29 | O=C1c2ccccc2C(=O)N1[C@@H](Cc1ccccc1)C(=O)n1cccc1CO | > 100
30 | C1CSC2=C(S1)SC1=C(S2)SC(=C2SC3=C(SC4=C(SCCS4)S3)S2)S1 | > 100
31 | Clc1ccc(Cc2nc3cc(Cl)c(Cl)cc3n2CC2CCCN3CCCCC23)cc1Cl (stereo not drawn) | 19.2
32 | C=CC(C)(C)OC[C@@H]1NC(=O)CNC(=O)[C@@H]2CCCN2C(=O)[C@H](C(C)CC)NC(=O)[C@@H]2CSC(=N2)[C@H](CC(C)C)NC1=O (stereo partly drawn) (cyclo(GS(Allyl(1,1-Me2))[X53][Ile(3ξ)]P)) | > 100

System: SF-295 CNS
Test: NCI tumour cell line growth inhibition, 48 h

Row | Compound | TGI [µM]
33 | O=C1c2ccccc2C(=O)N1[C@@H](Cc1ccccc1)C(=O)n1cccc1CO | > 100
34 | C1CSC2=C(S1)SC1=C(S2)SC(=C2SC3=C(SC4=C(SCCS4)S3)S2)S1 | > 100
35 | Clc1ccc(Cc2nc3cc(Cl)c(Cl)cc3n2CC2CCCN3CCCCC23)cc1Cl (stereo not drawn) | 10.5
36 | C=CC(C)(C)OC[C@@H]1NC(=O)CNC(=O)[C@@H]2CCCN2C(=O)[C@H](C(C)CC)NC(=O)[C@@H]2CSC(=N2)[C@H](CC(C)C)NC1=O (stereo partly drawn) (cyclo(GS(Allyl(1,1-Me2))[X53][Ile(3ξ)]P)) | > 100

System: NCI-H226 lung
Test: NCI tumour cell line growth inhibition, 48 h

Row | Compound | TGI [µM]
37 | O=C1c2ccccc2C(=O)N1[C@@H](Cc1ccccc1)C(=O)n1cccc1CO | > 100
38 | C1CSC2=C(S1)SC1=C(S2)SC(=C2SC3=C(SC4=C(SCCS4)S3)S2)S1 | > 100
39 | Clc1ccc(Cc2nc3cc(Cl)c(Cl)cc3n2CC2CCCN3CCCCC23)cc1Cl (stereo not drawn) | 26.8
40 | C=CC(C)(C)OC[C@@H]1NC(=O)CNC(=O)[C@@H]2CCCN2C(=O)[C@H](C(C)CC)NC(=O)[C@@H]2CSC(=N2)[C@H](CC(C)C)NC1=O (stereo partly drawn) (cyclo(GS(Allyl(1,1-Me2))[X53][Ile(3ξ)]P)) | > 100

System: HCT-15 colon
Test: NCI tumour cell line growth inhibition, 48 h

Row | Compound | TGI [µM]
41 | O=C1c2ccccc2C(=O)N1[C@@H](Cc1ccccc1)C(=O)n1cccc1CO | > 100
42 | C1CSC2=C(S1)SC1=C(S2)SC(=C2SC3=C(SC4=C(SCCS4)S3)S2)S1 | > 100
43 | Clc1ccc(Cc2nc3cc(Cl)c(Cl)cc3n2CC2CCCN3CCCCC23)cc1Cl (stereo not drawn) | 17.1
44 | C=CC(C)(C)OC[C@@H]1NC(=O)CNC(=O)[C@@H]2CCCN2C(=O)[C@H](C(C)CC)NC(=O)[C@@H]2CSC(=N2)[C@H](CC(C)C)NC1=O (stereo partly drawn) (cyclo(GS(Allyl(1,1-Me2))[X53][Ile(3ξ)]P)) | > 100

System: TK-10 renal
Test: NCI tumour cell line growth inhibition, 48 h

Row | Compound | TGI [µM]
45 | O=C1c2ccccc2C(=O)N1[C@@H](Cc1ccccc1)C(=O)n1cccc1CO | > 100
46 | C1CSC2=C(S1)SC1=C(S2)SC(=C2SC3=C(SC4=C(SCCS4)S3)S2)S1 | > 100
47 | Clc1ccc(Cc2nc3cc(Cl)c(Cl)cc3n2CC2CCCN3CCCCC23)cc1Cl (stereo not drawn) | 19.5
48 | C=CC(C)(C)OC[C@@H]1NC(=O)CNC(=O)[C@@H]2CCCN2C(=O)[C@H](C(C)CC)NC(=O)[C@@H]2CSC(=N2)[C@H](CC(C)C)NC1=O (stereo partly drawn) (cyclo(GS(Allyl(1,1-Me2))[X53][Ile(3ξ)]P)) | > 100

System: NCI-H23 lung
Test: NCI tumour cell line growth inhibition, 48 h

Row | Compound | TGI [µM]
49 | O=C1c2ccccc2C(=O)N1[C@@H](Cc1ccccc1)C(=O)n1cccc1CO | > 100
50 | C1CSC2=C(S1)SC1=C(S2)SC(=C2SC3=C(SC4=C(SCCS4)S3)S2)S1 | > 100
51 | C=CC(C)(C)OC[C@@H]1NC(=O)CNC(=O)[C@@H]2CCCN2C(=O)[C@H](C(C)CC)NC(=O)[C@@H]2CSC(=N2)[C@H](CC(C)C)NC1=O (stereo partly drawn) (cyclo(GS(Allyl(1,1-Me2))[X53][Ile(3ξ)]P)) | > 100

System: CCRF-CEM leukemia
Test: NCI tumour cell line growth inhibition, 48 h

Row | Compound | TGI [µM]
52 | O=C1c2ccccc2C(=O)N1[C@@H](Cc1ccccc1)C(=O)n1cccc1CO | > 100
53 | C1CSC2=C(S1)SC1=C(S2)SC(=C2SC3=C(SC4=C(SCCS4)S3)S2)S1 | > 100
54 | C=CC(C)(C)OC[C@@H]1NC(=O)CNC(=O)[C@@H]2CCCN2C(=O)[C@H](C(C)CC)NC(=O)[C@@H]2CSC(=N2)[C@H](CC(C)C)NC1=O (stereo partly drawn) (cyclo(GS(Allyl(1,1-Me2))[X53][Ile(3ξ)]P)) | > 100

System: PC-3 prostate
Test: NCI tumour cell line growth inhibition, 48 h

Row | Compound | TGI [µM]
55 | O=C1c2ccccc2C(=O)N1[C@@H](Cc1ccccc1)C(=O)n1cccc1CO | > 100
56 | C1CSC2=C(S1)SC1=C(S2)SC(=C2SC3=C(SC4=C(SCCS4)S3)S2)S1 | > 100
57 | Clc1ccc(Cc2nc3cc(Cl)c(Cl)cc3n2CC2CCCN3CCCCC23)cc1Cl (stereo not drawn) | 14.1
58 | C=CC(C)(C)OC[C@@H]1NC(=O)CNC(=O)[C@@H]2CCCN2C(=O)[C@H](C(C)CC)NC(=O)[C@@H]2CSC(=N2)[C@H](CC(C)C)NC1=O (stereo partly drawn) (cyclo(GS(Allyl(1,1-Me2))[X53][Ile(3ξ)]P)) | > 100
